Experimental data: patent US4330557A, “Acyl-carnitine and use thereof in parenteral administration of triglycerides” (priority 1980, dated 1982)

Assay: general statement on activity and toxicity of carnitine stereoisomers and acyl-carnitine

Row | Compound | activity of carnitine isomer (L-isomer versus other isomer) | toxicity of carnitine isomer (D-isomer versus other isomer)
1 | C[N+](C)(C)C[C@H](O)CC(=O)[O-] [L-carnitine] | more active | –
2 | C[N+](C)(C)C[C@@H](O)CC(=O)[O-] [D-carnitine] | – | slightly more toxic
